Test results published in patent EP0560232A1, “Novel 7-aminolabdanes, a process for their preparation and their use as pharmaceutical agents” (HOECHST AKTIENGESELLSCHAFT, priority 1992, dated 1993).

What was measured:
[1] = test system: Isolated Rat Portal Vein; assay: Potassium channel opening activity, isolated rat portal vein model (KCl-induced contractions); conditions: Dose 10^-6 Mol, 5 min incubation, n=5, mean + SEM, vehicle D.W. or DMSO; for Percent Inhibition Activity KCl20 mM: reduction of KCl 20 mM induced contraction; for Percent Inhibition Activity KCl80 mM: reduction of KCl 80 mM induced contraction
Experimental: Potassium channel opening activity: - Isolated Rat Portal Vein model.
Normal male albino rats of the Charles Foster strain of weight range 200 to 250 g were used.
After sacrificing the animal, abdomen was opened and portal vein was isolated and mounted in an organ bath containing Kerb's solution. The bath was maintained at 37°C and aerated with 95 vol.% oxygen and 5 vol.% carbon dioxide gas mixture. The tissue was kept under 0.5 to 1 g tension and allowed to stabilise for about 30 minutes. KCl₂₀ and KCl₈₀ mM induced cumulative concentrations were measured-through Hugo Sachs Force displacement transducer (K-30) and recorded on 4 channel digital recorder. After taking 2 control responses, the tissue was incubated with test substance for 5 minutes and dose response was repeated. The percent reduction in KCl₂₀ and KCl₈₀ mM induced contractions were calculated from the control values. Standard potassium channel opener selectively blocks the KCl₂₀ induced contractions without affecting the KCl₈₀ mM induced responses. […] The test compounds were administered in a volume of 0.2 ml per concentration. All results are expressed as mean + SEM.

[2] = test system: Hypovolemic rats; assay: Blood pressure lowering activity in hypovolemic rats; format: in vivo; conditions: for Blood pressure (mm Hg) Initial: before drug
Experimental: Hypovolemic rats were used for this activity. Hypovolemic rats were prepared by the administration of 100 mg/kg furosemide intra peritoneally 1 hour prior to the actual experiment. After administering furosemide the rats were anesthesised with 1.5 g/kg urethane given i.p. The right carotid artery was cannulated and blood pressure was mentioned on a physiological recorder by connecting the carotial cannula to a pressure transducer. The left jugular vein was cannulated for i.v. administration of test substances - intra duodenal (i.d.) administration is made by exposing a portion of the duodenum through a small incision made in the abdomen below the sternum. Blood pressure was monitored for 10 minutes in case of i.v. administration and for 90 to 120 minutes when the drug was administered by the i.d. route.

| SMILES | Percent Inhibition Activity KCl20 mM [1] | Percent Inhibition Activity KCl80 mM [1] | Blood pressure % change ([2]; 10 mg/kg i.v.) [%] | Blood pressure (mm Hg) Post drug ([2]; 10 mg/kg i.v.) [mm Hg] | Blood pressure duration ([2]; 10 mg/kg i.v.) [min] | Blood pressure (mm Hg) Initial ([2]; group dosed 10 mg/kg i.v.) [mm Hg] | Blood pressure % change ([2]; 30 mg/kg i.d.) [%] | Blood pressure (mm Hg) Post drug ([2]; 30 mg/kg i.d.) [mm Hg] | Blood pressure duration ([2]; 30 mg/kg i.d.) [min] | Blood pressure (mm Hg) Initial ([2]; group dosed 30 mg/kg i.d.) [mm Hg] |
| --- | --- | --- | --- | --- | --- | --- | --- | --- | --- | --- |
| C=C[C@@]1(C)CC(=O)[C@H]2[C@](C)(O1)[C@H](N)C=C1C(C)(C)CCC[C@@]12C [(α)NH2, 7α-Amino-8,13-epoxy-labd-5,14-dien-11-one] | 57+9% | 34+9% | -20.5±3 | 68±4 | 5 | 87±9 |  |  |  |  |
| C=C[C@@]1(C)CC(=O)[C@H]2[C@](C)(O1)[C@H](NC(C)=O)C=C1C(C)(C)CCC[C@@]12C [(α)NHCOCH3, 7α-Acetylamino-8,13-epoxy-labd-5,14-dien-11-one] | 34+10% | 5+2% |  |  |  |  | -15.4±3 | 80±4 | 30 | 94±3 |
| C=C[C@@]1(C)CC(=O)[C@@]2(O)[C@](C)(O1)[C@@H](N)C=C1C(C)(C)CC[C@H](O)[C@@]12C [(β)NH2, 7β-Amino-1α,9α-dihydroxy-8,13-epoxy-labd-5,14-dien-11-one] |  |  |  | 38±2 | >70 | 90±10 |  |  |  |  |
